One compound from US6126909A, “Process and apparatus for the production of BI-212 and a use thereof” (Arch Development Corporation, priority 1999, dated 2000) can be followed below.

SMILES strings stand for the structures. Entries after “also recorded” stand apart in the source; their conditions may differ.

Data set [1] relates to NIH:OVCAR-3 cells (spheroids). Nature of the data set: In vitro irradiation survival, spheroids. It counts as cell-based, human. To be noted: OVCAR-3 spheroids. On the procedure:
In vitro studies were carried out using three well known cell lines, the cells from which were exposed to radiation from: (1) an X-ray source; (2) P-32 chromic phosphate; and (3) Bi-212 chloride. The three cell lines that were used are V-79, which is a Chinese hamster lung fibroblast, Ehrlich-Lettre Ascites carcinoma (ATCC CCL 77), which is an ascites producing -tumor, and NIH:OVCAR-3 (ATCC HTB 161), which is a human ovarian adenocarcinoma. These well known cell lines are predictive of what happens in vivo. The cells were grown as monolayers and into spheroid formations and subsequently irradiated, as described herein.
The V-79 cells were maintained under exponential growth conditions in minimal essential medium (MEM) supplemented with 10 percent fetal bovine serum. The Ehrlich-Lettre Ascites carcinoma cells were maintained in 90 percent NCTC 109 supplemented with 10 percent fetal bovine serum. The NIH:OVCAR-3 cells were maintained in RPMI 1640 and 10 percent fetal bovine serum.
To initiate the formation of the spheroids, cells at a concentration of about 500,000 cells per flask were seeded onto petri dishes base-cooked with 1 percent agar MEM without serum. After spheroids having a size of about 20 micrometers (μm) formed, the spheroids were transferred to spinner bottles and maintained for two to three weeks at a temperature of 37° C. in a CO2 incubator until they grew to 10 to 1000 μm. Prior to irradiation, the spheroids were sized and separated using a spheroid separation column.
Cells from each of the cell lines were irradiated by subjecting the cells to X-ray radiation, P-32, and Bi-212. The X-ray source that was used is a General Electric 250 kvp Maxitron, 26 […] (mA) (HVL 1.5 mm Cu) operated at a dose rate of 1.11 Greys per minute (Gy/min). The cells, in both monolayer and spheroid form were exposed at room temperature and then immediately plated for survival.
Cells in both monolayer and spheroid were exposed to P-32 chromic phosphate. The radiation dose to each sample was calculated as: […]
After exposure, the cells were washed in phosphate-buffered saline (PBS) and immediately plated for survival.
The cell lines were also irradiated using Bi-212. […] The filter was purged with 1 ml of distilled deionized water, and the radioactivity was assayed using a calibrated 3×3-in. […]
Cells were exposed over a period of four hours. The dose (D) per microCurie was calculated and corrected for decay as follows: [formula] where V=volume in milliliters, and […]
Following plating, survival measurements were taken for each of the irradiated cell samples. […] The plates were then stained with crystal violet and colonies greater than 50 cells were scored. The surviving fraction was then determined.
Intrinsic radiosensitivity (Do) was calculated from the survival curves. […]

Data set [2] can be described thus: Distribution in peritoneal cavity (imaging and necropsy). Format: in vivo, rabbit. To be noted: rabbits. As to the method: (§1) In vivo studies were conducted to determine the distribution of Bi-212 produced using the above-noted process and to compare the Bi-212 distribution to the distribution of Pb-212 ferrous hydroxide in colloidal form. The in vivo studies were conducted using white, female New Zealand rabbits weighing about 4.5 kilograms ([…]) each. Studies were also conducted using rabbits to determine the toxicity levels, e.g., the maximum tolerated dose. Efficacy studies were conducted using 25 gram (gm) female Swiss-Webster mice inoculated with Ehrlich-Lettre Ascites carcinoma cells.
Groups of rabbits were instilled with a varying amounts (correlating to varying activities) of Bi-212 that were prepared in accordance with the before-described process, neutralized to pH values of between 5.0 and 7.4, and had added thereto a quantity of normal saline to make a 200 cc sample. To compare the distribution of Bi-212, Pb-212 ferrous hydroxide was prepared in accordance with known methods. Rotmensch et al., Gynecol. Oncol., 35:297-300 (1989). […]
Of the groups of rabbits instilled with the Bi-212 solution, a rabbit was imaged and necropsied at each of one-half hour, one hour and three hours after instillation. The percent injected activity (%IA) in each organ was measured to determine the distribution of the Bi-212(Table 6). […] The percent activity remaining in the peritoneal fluid was measured.

For data set [3], the system named is Ehrlich-Lettre Ascites carcinoma cells. As to the kind of experiment: Efficacy study in mice inoculated with carcinoma cells. It counts as in vivo, mouse. As to conditions: 100 μCi i.p. On the procedure: as §1
Efficacy studies were conducted using groups of five 25 gm female Swiss-Webster mice that were intraperitoneally inoculated with 10^6 Ehrlich-Lettre Ascites carcinoma cells. The mice were subsequently instilled with 100 μCi of Bi-212 in up to 1 cc normal saline 48 hours after inoculation with the Ehrlich-Lettre Ascites carcinoma cells. The mice were sacrificed at one-half hour, one hour and 3 hours after instillation with the Bi-212 solution. Control groups were inoculated with the Ehrlich-Lettre Ascites carcinoma cells only.

Data set [4] can be described thus: Solubility of Bi-212 at various pH values (0.22 μ filter). Format: physicochemical. On the procedure:
The solubility was measured by passing the solution through a 0.22 μ Nalgene® filter and measuring the activity of the resulting solution and the activity of the filter.

For the compound `[212Bi]` [Bi-212, bismuth-212], the “D0 (intrinsic radiosensitivity)” value in data set [1] (dose to 37 percent survival) worked out at 0.55 Gy. For the same compound, the “Relative biological effectiveness (RBE)” value in data set [1] (relative to X-ray) came to 2.81. Besides, in data set [2] (intraperitoneal instillation), the “Distribution in peritoneal cavity/fluid” value was “even distribution within the peritoneal fluid; also recorded: relatively even”. Moreover, the “Clumping / localized activity in peritoneal cavity” value in data set [2] (imaging up to 3 hours or necropsy) is reported as “no clumping; i.e., no localized activity in the peritoneal cavity up to 3 hours after instillation”. The Median survival time in data set [3] (48 hours after 10^6 cells, after treatment) worked out at 82 days. For the same compound, the “Cure with no evidence of disease” value in data set [3] (3 months later) is 40%. Moreover, the Maintained in solution entry in data set [4] (acidic pH) was “maintained in solution at an acidic pH value”. In data set [4] (pH 6), the Activity in solution turned out to be 5.55 mCi, the Activity on filter is listed as 0.24 mCi, the “Percent activity in solution” value was 96% and the “Percent activity on filter” value is on record as 4%. Besides, in data set [4] (pH 7), the Activity in solution turned out to be 3.24 mCi, the Activity on filter was found to be 0.023 mCi, the “Percent activity in solution” value was found to be 94% and the “Percent activity on filter” value is reported as 6%. In addition, in data set [4] (pH 8), the Activity in solution is recorded as 1.90 mCi, the Activity on filter stood at 0.50 mCi, the “Percent activity in solution” value is 83% and the “Percent activity on filter” value was 17%. In data set [4] (pH 9), the Activity in solution amounted to 0.65 mCi, the Activity on filter stood at 1.35 mCi, the “Percent activity in solution” value is reported as 32% and the “Percent activity on filter” value came out at 68%. Also, the “Solubility dependence on pH” value in data set [4] (radio-impurity-free solution) is listed as “solubility increasing with a decrease in pH value”.
